Laboratory results taken from patent publication US10721934B2, “Enhanced preservative” (Arch Chemicals, Inc., priority 2013, dated 2020).

How the values were obtained:
Assay type in all cases: cell-based
Candida albicans = assay: MIC test, 96 well microtiter plate; conditions: Candida albicans, read-out: Minimum Inhibitory Concentration
Procedure: (§1) MIC set up: A 96 well microtiter plate Minimum Inhibitory Concentration (MIC) test was run in broth suitable for the test organism. Serially diluted actives were prepared in sterilized water, and the start-up concentration varied depending on the efficacy range. Inocula prepared in 2× suitable broth was added into each well, and the final concentrations of bacteria were adjusted to approximately 5×10^5.
(§2) Further MIC tests were conducted using different amine compounds in combination with a pyrithione and two different isothiazolinones. The procedures described in Example No. 1 were used.

Aspergillus brasiliensis = assay: MIC test, 96 well microtiter plate; conditions: Aspergillus brasiliensis, read-out: Minimum Inhibitory Concentration
Procedure: as §1, §2

Escherichia coli = assay: MIC test, 96 well microtiter plate; conditions: Escherichia coli, read-out: Minimum Inhibitory Concentration
Procedure: as §1, §2

Aureobasidium pullulans = assay: MIC test, 96 well microtiter plate; conditions: Aureobasidium pullulans, read-out: Minimum Inhibitory Concentration
Procedure: as §1, §2

Staphylococcus aureus = assay: MIC test, 96 well microtiter plate; conditions: Staphylococcus aureus, read-out: Minimum Inhibitory Concentration
Procedure: as §1, §2

[1] = system: mixed bacterial inoculum (Pseudomonas aeruginosa, Enterobacter cloacae, Escherichia coli, Acinetobacter calcoaceticus); assay: Repeated inoculation of standard acrylic paint, streak plate rating
Procedure: In the following experiments, a pyrithione, an isothiazolinone, and a biocide enhancing agent in accordance with the present disclosure were combined with a standard acrylic paint. The concentrations of the pyrithione, the isothiazolinone and the biocide enhancing agent were varied. The pyrithione, the isothiazolinone and the biocide enhancing agent were added alone and in various mixtures to the standard acrylic paint.
The acrylic paint was then inoculated three times using a mixed bacterial inoculum. The bacterial inoculum, which comprised a bacterial suspension in water, contained the following four bacteria in equal proportions.
The samples were streak plated at 24, 48, and 72 hours after inoculation. The streak plates were rated as follows;

CCCCCCCCCCCC[N+](C)(C)[O-] [CDMA Oxide, cocodimethylamine oxide]
MIC (Candida albicans): 13.9 µg/mL
MIC (Aspergillus brasiliensis): 17.4 µg/mL
MIC (Escherichia coli): 557 µg/mL
MIC (Aureobasidium pullulans): 13.9 µg/mL
MIC (Staphylococcus aureus): 13.9 µg/mL
streak plate rating ([1]; Set Five, CDMA Oxide 1200 ppm, 1st inoculation 24 h): 5 (>45 viable microorganisms Severely contaminated)
streak plate rating ([1]; Set Five, CDMA Oxide 1200 ppm, 1st inoculation 48 h): 5 (>45 viable microorganisms Severely contaminated)
streak plate rating ([1]; Set Five, CDMA Oxide 1200 ppm, 1st inoculation 72 h): 5 (>45 viable microorganisms Severely contaminated)
streak plate rating ([1]; Set Five, CDMA Oxide 1200 ppm, 2nd inoculation 24 h): 5 (>45 viable microorganisms Severely contaminated)
streak plate rating ([1]; Set Five, CDMA Oxide 1200 ppm, 2nd inoculation 48 h): 5 (>45 viable microorganisms Severely contaminated)
streak plate rating ([1]; Set Five, CDMA Oxide 1200 ppm, 2nd inoculation 72 h): 5 (>45 viable microorganisms Severely contaminated)
streak plate rating ([1]; Set Five, CDMA Oxide 1200 ppm, 3rd inoculation 24 h): 5 (>45 viable microorganisms Severely contaminated)
streak plate rating ([1]; Set Five, CDMA Oxide 1200 ppm, 3rd inoculation 48 h): 5 (>45 viable microorganisms Severely contaminated)
streak plate rating ([1]; Set Five, CDMA Oxide 1200 ppm, 3rd inoculation 72 h): 5 (>45 viable microorganisms Severely contaminated)
streak plate rating ([1]; Set Two, CDMA Oxide alone, ppm not given, 1st inoculation 24 h): 5 (>45 viable microorganisms Severely contaminated)
streak plate rating ([1]; Set Two, CDMA Oxide alone, ppm not given, 1st inoculation 48 h): 5 (>45 viable microorganisms Severely contaminated)
streak plate rating ([1]; Set Two, CDMA Oxide alone, ppm not given, 1st inoculation 72 h): 5 (>45 viable microorganisms Severely contaminated)
streak plate rating ([1]; Set Two, CDMA Oxide alone, ppm not given, 2nd inoculation 24 h): 5 (>45 viable microorganisms Severely contaminated)
streak plate rating ([1]; Set Two, CDMA Oxide alone, ppm not given, 2nd inoculation 48 h): 5 (>45 viable microorganisms Severely contaminated)
streak plate rating ([1]; Set Two, CDMA Oxide alone, ppm not given, 2nd inoculation 72 h): 5 (>45 viable microorganisms Severely contaminated)
streak plate rating ([1]; Set Two, CDMA Oxide alone, ppm not given, 3rd inoculation 24 h): 5 (>45 viable microorganisms Severely contaminated)
streak plate rating ([1]; Set Two, CDMA Oxide alone, ppm not given, 3rd inoculation 48 h): 5 (>45 viable microorganisms Severely contaminated)
streak plate rating ([1]; Set Two, CDMA Oxide alone, ppm not given, 3rd inoculation 72 h): 5 (>45 viable microorganisms Severely contaminated)
